Data as given in publication PMC12337190, “A bacterial actin with high ATPase activity regulates the polymerization of a partner MreB isoform essential for Spiroplasma swimming motility” (The Journal of Biological Chemistry, 2025).

How the values were obtained:
[1] = molecular target: T1, SpeMreB5 (Spiroplasma eriocheiris, UniProt A0A0H3XIQ3); experiment: liposome cosedimentation (loss of membrane binding with nucleotide); conditions: 1 mM nucleotide, SpiroLipid liposomes, 200 mM KCl, 1 mM MgCl2, pH 7.5
T1 construct: gene mreB5; full-length SpeMreB5, 6xHis tag, pCold-15b, E. coli BL21(DE3), codon-optimized
T1 sequence (A0A0H3XIQ3 1-350): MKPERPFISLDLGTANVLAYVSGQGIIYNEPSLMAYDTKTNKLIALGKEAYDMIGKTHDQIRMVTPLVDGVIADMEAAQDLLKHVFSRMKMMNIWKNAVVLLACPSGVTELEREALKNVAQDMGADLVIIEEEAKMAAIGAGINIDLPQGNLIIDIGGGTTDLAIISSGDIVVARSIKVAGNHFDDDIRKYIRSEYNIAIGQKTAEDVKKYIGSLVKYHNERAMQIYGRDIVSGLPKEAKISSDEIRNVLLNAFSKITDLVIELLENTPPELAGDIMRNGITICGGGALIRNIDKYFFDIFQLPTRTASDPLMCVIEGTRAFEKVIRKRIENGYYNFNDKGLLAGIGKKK

[2] = molecular target: PrS-SpeMreB1 WT (monomeric gel-filtration fraction) (Spiroplasma eriocheiris); experiment: sedimentation assay (ultracentrifugation); buffer S with 2 mM ADP; 3 h at room temperature; 100,000 rpm, 23 °C, 90 min; critical concentration as x-intercept of the linear fit
[3] = molecular target: PrS-SpeMreB1 WT (monomeric gel-filtration fraction) (Spiroplasma eriocheiris); experiment: sedimentation assay (ultracentrifugation); buffer S with 2 mM AMPPNP; 3 h at room temperature; 100,000 rpm, 23 °C, 90 min; no linear fit possible (small pellet amounts)
[4] = molecular target: PrS-SpeMreB1 WT (monomeric gel-filtration fraction) (Spiroplasma eriocheiris); experiment: sedimentation assay (ultracentrifugation); buffer S (20 mM Tris-HCl pH 8.0, 1 M NaCl, 200 mM L-arginine-HCl, 5 mM DTT, 2 mM MgCl2) with 2 mM ATP; 3 h at room temperature; 100,000 rpm, 23 °C, 90 min; critical concentration as x-intercept of the linear fit
[5] = molecular target: T2, PrS-SpeMreB1 (Spiroplasma eriocheiris, UniProt A0A0H3XI00); experiment: sedimentation assay of polymerization; assay type: biochemical; conditions: 2 mM ADP, 1 M NaCl, 2 mM MgCl2, pH 8.0, room temperature; polymerizes with nucleotide, not nucleotide-free
T2 construct: gene mreB1; full-length SpeMreB1; N-terminal 6xHis, two ProteinS (M. xanthus) solubilization tags, factor Xa site; C-terminal 6xHis; tags kept; 560 residues with tags; E. coli BL21(DE3), codon-optimized; monomeric gel filtration fraction
T2 sequence (A0A0H3XI00 1-346): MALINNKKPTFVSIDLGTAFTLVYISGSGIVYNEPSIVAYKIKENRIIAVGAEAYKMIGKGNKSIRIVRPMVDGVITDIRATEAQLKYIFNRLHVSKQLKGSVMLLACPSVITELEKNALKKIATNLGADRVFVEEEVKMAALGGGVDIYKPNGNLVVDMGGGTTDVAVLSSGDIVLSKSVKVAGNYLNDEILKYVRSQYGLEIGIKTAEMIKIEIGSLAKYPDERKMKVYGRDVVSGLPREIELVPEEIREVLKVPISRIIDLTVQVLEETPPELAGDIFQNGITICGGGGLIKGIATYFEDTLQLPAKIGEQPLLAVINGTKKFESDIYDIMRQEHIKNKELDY

[6] = molecular target: PrS-SpeMreB1 T164A (Spiroplasma eriocheiris); experiment: sedimentation assay (ultracentrifugation); buffer S (20 mM Tris-HCl pH 8.0, 1 M NaCl, 200 mM L-arginine-HCl, 5 mM DTT, 2 mM MgCl2) with 2 mM ATP; 3 h at room temperature; 100,000 rpm, 23 °C, 90 min; critical concentration as x-intercept of the linear fit

Nc1ncnc2c1ncn2[C@@H]1O[C@H](COP(=O)(O)OP(=O)(O)NP(=O)(O)O)[C@@H](O)[C@H]1O [AMPPNP]
liposome cosedimentation (loss of membrane binding with nucleotide) [1]: SpeMreB5 did not bind to the liposomes in the presence of nucleotides

PrS-SpeMreB1 WT (monomeric gel-filtration fraction) (natural protein)
critical concentration (CC) for polymerization [2]: 3.8 µM
critical concentration (CC) for polymerization [3]: > 7 µM
critical concentration (CC) for polymerization [4]: 0.41 µM

Nc1ncnc2c1ncn2[C@@H]1O[C@H](COP(=O)(O)OP(=O)(O)O)[C@@H](O)[C@H]1O [ADP]
sedimentation assay of polymerization [5]: PrS-SpeMreB1 was less polymerized in the presence of ADP
liposome cosedimentation (loss of membrane binding with nucleotide) [1]: SpeMreB5 did not bind to the liposomes in the presence of nucleotides

PrS-SpeMreB1 T164A (natural protein)
critical concentration (CC) for polymerization [6]: 3 µM

Nc1ncnc2c1ncn2[C@@H]1O[C@H](COP(=O)(O)OP(=O)(O)OP(=O)(O)O)[C@@H](O)[C@H]1O [ATP]
liposome cosedimentation (loss of membrane binding with nucleotide) [1]: SpeMreB5 did not bind to the liposomes in the presence of nucleotides
